# Measurements: article PMC7555839 (Frontiers in Microbiology, 2020)
# Like-named read-outs stand apart in the source and are kept apart here.
# How the values were obtained:
# S. aureus ATCC BAA-1556 [1] = test: Broth microdilution (MIC/MBC); assay type: cell-based; conditions: Staphylococcus aureus, ATCCBAA1556; ATCC BAA-1556, human clinical isolate
# [2] = test system: Staphylococcus epidermidis RP62a; test: Broth microdilution (MIC/MBC); assay type: cell-based; conditions: human clinical isolate
# [3] = test system: Cutibacterium acnes P10140156 (in house strain); test: Broth microdilution (MIC/MBC), anaerobic; assay type: cell-based
# [4] = test system: eight Gram-positive pathogenic bacteria; test: Broth microdilution, summary over Gram-positive isolates; assay type: cell-based
# [5] = test system: three Gram-negative pathogenic bacteria; test: Broth microdilution, summary over Gram-negative isolates; assay type: cell-based
# S. aureus ATCC BAA-1556 [6] = test: Broth microdilution with 20% human serum; assay type: cell-based, Staphylococcus aureus
# Description: (§1) In addition, whether serum proteins affected the activity of JBC 1847 against three S. aureus strains (USA300 JE2, ATCC BAA-1556 and CC398 in house strain) was investigated. Broth microdilution assays analog to previously described, with a 20% human serum (Sigma-Aldrich, Brøndby, Denmark) concentration were carried for three S. aureus strains (Table 1). MIC and MBC values were determined as previously described.
# [7] = test system: S. aureus CC398 in house strain; test: Broth microdilution with 20% human serum; assay type: cell-based, Staphylococcus aureus
# Description: as §1
# S. aureus USA300 JE2 [8] = test: Broth microdilution with 20% human serum; assay type: cell-based, Staphylococcus aureus
# Description: as §1
# S. aureus ATCC-BAA = test: Agar dilution MIC; assay type: cell-based; conditions: Staphylococcus aureus, MHA plates
# Description: (§2) Initially, MHA plates with JBC 1847 concentrations ranging from 0.5 to 8 mg/L were made and bacterial inoculum was prepared as previously described, was added to each plate. […] The MIC values for the two S. aureus strains were both determined to 4 mg/L and therefore, TSA plates with a JBC 1847 concentration of 2 mg/L were prepared to ensure the strains were able to grow. One dish of each type of antibiotic was added to a single TSA plate with JBC 1847 and a control plate containing only TSA and inoculated as previously described. Two plates containing only 2 mg/L JBC 1847 and bacterial inoculum for each strain served as a positive control. After incubation, clearing zones were measured and compared between control and JBC 1847 plates.
# S. aureus USA300 JE2 [9] = test: Agar dilution MIC; assay type: cell-based; conditions: Staphylococcus aureus, MHA plates
# Description: as §2
# S. aureus USA300 JE2 [10] = test: Growth and viability assay; assay type: cell-based, Staphylococcus aureus; conditions: for Bacterial concentration after 24 h: 0.5 × MIC
# Description: Growth and viability assays were performed according to a previously published method ([Thorsing et al., 2013]), with some modifications. In general, the assay was conducted over a 24 h period in a 37°C heating bath with shaking, using S. aureus USA300 JE2 as test strain. […] The culture was diluted 1:100 in BHI broth and grown to early exponential phase (OD600 0.20). […] This culture was grown to OD600 0.20 where sample zero was collected. […] 100 μl samples were serially diluted, spread on MHA plates, and incubated at 37°C for 20–24 h followed by successive counting.
# Data were statically analyzed and visualized using RStudio v3.6.3 ([R Core Team, 2020]) and Microsoft excel. In general, the values reflecting the bacterial concentration (CFU/ml) were transformed into a logarithmic scale. In the growth and viability assay, the mean numbers of the bacterial concentrations from the triplicates were plotted against time and standard deviations shown as error bars. To investigate differences in bacterial concentration between treatment groups in the in vivo assay, multiple group comparisons were performed using ANOVA and P < 0.05 considered significant. The data was visualized in a standard box plot.
# MRSA USA300 = test: Transmission electron microscopy; assay type: cell-based, Staphylococcus aureus; conditions: concentration corresponding to the MIC, 1 h, vs untreated control
# Description: To elucidate the interaction between JBC 1847 and MRSA USA300, transmission electron microscopy (TEM) was carried out. Bacterial cultures were inoculated in 10 ml MHB and cultivated at 37°C for 5 h, with shaking, until mid-exponential growth phase ([…]). […] An untreated control was also prepared. The five samples were placed on ice until being prepared for TEM. This included a fixation step in 2% glutaraldehyde in 0.15 M sodium phosphate buffer (pH 7.2). Subsequently, the fixed cells were washed three times and postfixed with 0.2% OsO4 (osmium tetroxide) in H2O/0.15 M sodium phosphate buffer (pH 7.2) for 1 h. The samples were then dehydrated with graded acetone, and then embedded in epoxy resin. Ultrathin sections of the samples were prepared using Formvar-coated copper grids, which were stained using 3% uranyl acetate. The samples were placed in a Philips CM 100 Transmission EM (Philips, Eindhoven, Netherlands) and exposed to 120 keV electron energy.
# [11] = test system: Salmonella typhimurium TA98
# [12] = test system: Salmonella typhimurium TA1537; test: Ames test; conditions: for Mutagenicity ratio (MR): TA1537, 4 μg/well
# [13] = 20% human serum vs assay without serum
# [14] = Staphylococcus aureus, ATCCBAA1556, 20% human serum
# [15] = Staphylococcus aureus, 20% human serum
compound,measurement,setting,value
CC(C)=CCCC(C)CC[N+](C)(C)CCCN1c2ccccc2Sc2ccccc21 (stereo not drawn) [JBC 1847],MBC,S. aureus ATCC BAA-1556 [1],0.5 µg/mL
same,MIC,S. aureus ATCC BAA-1556 [1],0.5 µg/mL
same,MIC,[2],0.5 µg/mL
same,MBC,[3]; BHI agar with 1% L-cystein,0.5 to 1 µg/mL
same,MIC,[3]; BHI with 1% L-cysteine,0.5 to 1 µg/mL
same,MIC values (range over isolates),[4],0.5 to 2 µg/mL
same,MIC values (range over isolates),[5],8 to 32 µg/mL
same,Increase in MBC with human serum,S. aureus ATCC BAA-1556 [6]; [13],128 fold
same,Increase in MIC with human serum,S. aureus ATCC BAA-1556 [6]; [13],128 fold
same,MBC,S. aureus ATCC BAA-1556 [6]; [14],64 µg/mL
same,MIC,S. aureus ATCC BAA-1556 [6]; [14],64 µg/mL
same,Increase in MBC with human serum,[7]; [13],128 fold
same,Increase in MIC with human serum,[7]; [13],128 fold
same,MBC,[7]; [15],64 µg/mL
same,MIC,[7]; [15],64 µg/mL
same,Increase in MBC with human serum,S. aureus USA300 JE2 [8]; [13],128 fold
same,Increase in MIC with human serum,S. aureus USA300 JE2 [8]; [13],128 fold
same,MBC,S. aureus USA300 JE2 [8]; [15],64 µg/mL
same,MIC,S. aureus USA300 JE2 [8]; [15],64 µg/mL
same,MIC,S. aureus ATCC-BAA,4 µg/mL
same,MIC,S. aureus USA300 JE2 [9],4 µg/mL
same,Bacterial concentration after 24 h,S. aureus USA300 JE2 [10]; trial 1,approximately 10^3 CFU/ml
same,Bacterial concentration after 24 h,S. aureus USA300 JE2 [10]; trial 2,0 CFU/ml
same,Bacterial concentration after 24 h,"S. aureus USA300 JE2 [10]; trial 3, increase after 6 h",reached the same level as the control curve
same,Viable bacterial cells after 30 min,"S. aureus USA300 JE2 [10]; 4 × MIC, all three replicates",no viable bacterial cells
same,Bacterial count after 24 h,"S. aureus USA300 JE2 [10]; MIC concentration, trial 3",approximately 10^3 CFU/ml
same,Bacterial concentration at 24 h,"S. aureus USA300 JE2 [10]; MIC concentration, trials 1 and 2",0 CFU/ml
same,MIC,"S. aureus USA300 JE2 [10]; Staphylococcus aureus, USA300, 100 ml BHI broth flasks, culture at OD600 0.20, 37°C shaking 20–22 h, read-out: MIC (visually determined)",4 µg/mL
same,TEM appearance of bacterial cells,MRSA USA300,clearly lysed and the plasma membrane destroyed
same,Mean number of reverse mutated colonies,"[11]; TA98, + S9, 1.5 μg/well",11.00 ± 2.65
same,Mean number of reverse mutated colonies,"[11]; TA98, + S9, 4 μg/well",11.33 ± 3.79
same,Mean number of reverse mutated colonies,"[11]; TA98, + S9, 10 μg/well",13.67 ± 4.04
same,Mean number of reverse mutated colonies,"[11]; TA98, + S9, 64 μg/well",0.0
same,Mean number of reverse mutated colonies,"[11]; TA98, −S9, 1.5 μg/well",13.00 ± 2.00
same,Mean number of reverse mutated colonies,"[11]; TA98, −S9, 4 μg/well",9.00 ± 2.00
same,Mean number of reverse mutated colonies,"[11]; TA98, −S9, 10 μg/well",9.67 ± 3.51
same,Mean number of reverse mutated colonies,"[11]; TA98, −S9, 25 μg/well",0.0
same,Mean number of reverse mutated colonies,"[11]; TA98, −S9, 64 μg/well",0.0
same,Mutagenicity ratio (MR),[12]; absence of S9,above 2
same,Mutagenicity ratio (MR),[12]; presence of S9,above 2
same,Mean number of reverse mutated colonies,"[12]; TA1537, + S9, 1.5 μg/well",2.00 ± 2.65
same,Mean number of reverse mutated colonies,"[12]; TA1537, + S9, 10 μg/well",0.33 ± 0.58
same,Mean number of reverse mutated colonies,"[12]; TA1537, + S9, 64 μg/well",0.0
same,Mean number of reverse mutated colonies,"[12]; TA1537, −S9, 1.5 μg/well",5.00 ± 1.00
same,Mean number of reverse mutated colonies,"[12]; TA1537, −S9, 64 μg/well",0.0
